Assay results as given in the supplement of paper PMC10307832.

Key:
Experiment in all cases: relative viability (nuclei count vs DMSO), 5 days (fraction); higher = more cells survive
NCI-H1651 = test system: NCI-H1651
Summary of the method: (§1)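 Dosing by pin tool came one day after lung cancer cell lines were seeded in 1536-well plates, using either one drug or a fixed anchor-drug dose plus five library-drug doses (not always all listed) in √10 steps. After 5 days, nuclei were counted on 4× images. Relative viability is treated-well nuclei count divided by vehicle-well nuclei count, and values are medians of duplicate plates.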

NCI-H2228 = test system: NCI-H2228
Summary of the method: as §1

NCI-H2347 = test system: NCI-H2347
Summary of the method: as §1

NCI-H647 = test system: NCI-H647
Summary of the method: as §1

NCI-H2085 = test system: NCI-H2085
Summary of the method: as §1

HCC-44 = test system: HCC-44
Summary of the method: as §1

LC-2-ad = test system: LC-2-ad
Summary of the method: as §1

COR-L23 = test system: COR-L23
Summary of the method: as §1

NCI-H2170 = test system: NCI-H2170
Summary of the method: as §1

NCI-H1395 = test system: NCI-H1395
Summary of the method: as §1

HOP-62 = test system: HOP-62
Summary of the method: as §1

NCI-H838 = test system: NCI-H838
Summary of the method: as §1

NCI-H1355 = test system: NCI-H1355
Summary of the method: as §1

CAL-12T = test system: CAL-12T
Summary of the method: as §1

NCI-H23 = test system: NCI-H23
Summary of the method: as §1

NCI-H1993 = test system: NCI-H1993
Summary of the method: as §1

NCI-H520 = test system: NCI-H520
Summary of the method: as §1

NCI-H1666 = test system: NCI-H1666
Summary of the method: as §1

201T = test system: 201T
Summary of the method: as §1

NCI-H322M = test system: NCI-H322M
Summary of the method: as §1

O=C(O)CCCCC(CCSCc1ccccc1)SCc1ccccc1 (stereo not given) [CPI-613] + CC1(C)CCC(c2ccc(Cl)cc2)=C(CN2CCN(c3ccc(C(=O)NS(=O)(=O)c4ccc(N[C@H](CCN5CCOCC5)CSc5ccccc5)c(S(=O)(=O)C(F)(F)F)c4)cc3)CC2)C1 [Navitoclax] (partner 0.5 µM)
relative viability (NCI-H1651; first compound 5 µM): 1.04
relative viability (NCI-H1651; first compound 15.81 µM): 0.866
relative viability (NCI-H1651; first compound 50 µM): 1
relative viability (NCI-H1651; first compound 158.11 µM): 0.17
relative viability (NCI-H1651; first compound 500 µM): 0.152
relative viability (NCI-H2228; first compound 5 µM): 1.04
relative viability (NCI-H2228; first compound 15.81 µM): 0.755
relative viability (NCI-H2228; first compound 50 µM): 0.758
relative viability (NCI-H2228; first compound 158.11 µM): 0.297
relative viability (NCI-H2228; first compound 500 µM): 0.0138
relative viability (NCI-H2347; first compound 5 µM): 0.748
relative viability (NCI-H2347; first compound 15.81 µM): 0.747
relative viability (NCI-H2347; first compound 50 µM): 0.702
relative viability (NCI-H2347; first compound 158.11 µM): 0.768
relative viability (NCI-H2347; first compound 500 µM): 0.734
relative viability (NCI-H647; first compound 5 µM): 1.05
relative viability (NCI-H647; first compound 15.81 µM): 1.11
relative viability (NCI-H647; first compound 50 µM): 0.963
relative viability (NCI-H647; first compound 158.11 µM): 0.875
relative viability (NCI-H647; first compound 500 µM): 0.238
relative viability (NCI-H2085; first compound 5 µM): 0.988
relative viability (NCI-H2085; first compound 15.81 µM): 1.04
relative viability (NCI-H2085; first compound 50 µM): 1.07
relative viability (NCI-H2085; first compound 158.11 µM): 0.543
relative viability (NCI-H2085; first compound 500 µM): 0.196
relative viability (HCC-44; first compound 5 µM): 1.03
relative viability (HCC-44; first compound 15.81 µM): 1.08
relative viability (HCC-44; first compound 50 µM): 1.07
relative viability (HCC-44; first compound 158.11 µM): 0.322
relative viability (HCC-44; first compound 500 µM): 0.0385
relative viability (LC-2-ad; first compound 5 µM): 0.431
relative viability (LC-2-ad; first compound 15.81 µM): 0.354
relative viability (LC-2-ad; first compound 50 µM): 0.297
relative viability (LC-2-ad; first compound 158.11 µM): 0.0601
relative viability (LC-2-ad; first compound 500 µM): 0.0074
relative viability (COR-L23; first compound 5 µM): 1.07
relative viability (COR-L23; first compound 15.81 µM): 0.913
relative viability (COR-L23; first compound 50 µM): 0.987
relative viability (COR-L23; first compound 158.11 µM): 0.327
relative viability (COR-L23; first compound 500 µM): 0.0196
relative viability (NCI-H2170; first compound 5 µM): 0.6
relative viability (NCI-H2170; first compound 15.81 µM): 0.573
relative viability (NCI-H2170; first compound 50 µM): 0.593
relative viability (NCI-H2170; first compound 158.11 µM): 0.396
relative viability (NCI-H2170; first compound 500 µM): 0.0998
relative viability (NCI-H1395; first compound 5 µM): 1.48
relative viability (NCI-H1395; first compound 15.81 µM): 1.03
relative viability (NCI-H1395; first compound 50 µM): 1.08
relative viability (NCI-H1395; first compound 158.11 µM): 1.16
relative viability (NCI-H1395; first compound 500 µM): 0.961
relative viability (HOP-62; first compound 5 µM): 0.927
relative viability (HOP-62; first compound 15.81 µM): 0.992
relative viability (HOP-62; first compound 50 µM): 0.978
relative viability (HOP-62; first compound 158.11 µM): 0.984
relative viability (HOP-62; first compound 500 µM): 0.911
relative viability (NCI-H838; first compound 5 µM): 1.12
relative viability (NCI-H838; first compound 15.81 µM): 1.01
relative viability (NCI-H838; first compound 50 µM): 1.03
relative viability (NCI-H838; first compound 158.11 µM): 0.39
relative viability (NCI-H838; first compound 500 µM): 0.113
relative viability (NCI-H1355; first compound 5 µM): 0.993
relative viability (NCI-H1355; first compound 15.81 µM): 0.988
relative viability (NCI-H1355; first compound 50 µM): 1
relative viability (NCI-H1355; first compound 158.11 µM): 0.593
relative viability (NCI-H1355; first compound 500 µM): 0.128
relative viability (CAL-12T; first compound 5 µM): 1.17
relative viability (CAL-12T; first compound 15.81 µM): 0.967
relative viability (CAL-12T; first compound 50 µM): 0.965
relative viability (CAL-12T; first compound 158.11 µM): 0.0606
relative viability (CAL-12T; first compound 500 µM): 0.0373
relative viability (NCI-H23; first compound 5 µM): 0.858
relative viability (NCI-H23; first compound 15.81 µM): 0.711
relative viability (NCI-H23; first compound 50 µM): 0.801
relative viability (NCI-H23; first compound 158.11 µM): 0.564
relative viability (NCI-H23; first compound 500 µM): 0.027
relative viability (NCI-H1993; first compound 5 µM): 0.917
relative viability (NCI-H1993; first compound 15.81 µM): 0.917
relative viability (NCI-H1993; first compound 50 µM): 1.06
relative viability (NCI-H1993; first compound 158.11 µM): 0.64
relative viability (NCI-H1993; first compound 500 µM): 0.408
relative viability (NCI-H520; first compound 5 µM): 0.932
relative viability (NCI-H520; first compound 15.81 µM): 1.1
relative viability (NCI-H520; first compound 50 µM): 1.18
relative viability (NCI-H520; first compound 158.11 µM): 0.355
relative viability (NCI-H520; first compound 500 µM): 0.154
relative viability (NCI-H1666; first compound 5 µM): 0.944
relative viability (NCI-H1666; first compound 15.81 µM): 1.16
relative viability (NCI-H1666; first compound 50 µM): 1.03
relative viability (NCI-H1666; first compound 158.11 µM): 0.296
relative viability (NCI-H1666; first compound 500 µM): 0.212
relative viability (201T; first compound 5 µM): 1.23
relative viability (201T; first compound 15.81 µM): 1.2
relative viability (201T; first compound 50 µM): 1.17
relative viability (201T; first compound 158.11 µM): 1.14
relative viability (201T; first compound 500 µM): 1.09
relative viability (NCI-H322M; first compound 5 µM): 1.21
relative viability (NCI-H322M; first compound 15.81 µM): 1.17
relative viability (NCI-H322M; first compound 50 µM): 1.27
relative viability (NCI-H322M; first compound 158.11 µM): 1.05
relative viability (NCI-H322M; first compound 500 µM): 0.982
